We go through one compound from patent US20220192955A1, “AZOXYSTROBIN EFFICACY IN SCALP HEALTH” (The Procter & Gamble Company, priority 2020, published 2022).

One assay has as its system IL-1RA: IL-1α. The experiment in a line: Scalp tape strip inflammatory cytokines IL-1RA:IL-1α. It is filed as in vivo, human. The protocol: Subjects are enrolled in a double-blind, randomized study for all test groups and have Baseline and Week 3 measurements of scalp health taken for flaking, itch and scalp health endpoints. Subjects take home a test product(s) and are instructed on use of test products throughout the study. Test products are solubilized in a hydroalcoholic leave-on formulation. Azoxystrobin raw material is sourced from AK Scientific Inc. (Union City, Calif.) as >97% pure. Azoxystrobin scalp treatment is prepared from a slurry of azoxystrobin in ethanol that is formulated to 0.1% (w/v) in a base chassis of 50% ethanol, 0.35% Ultrez 21 (rheology modifier), 0.05% neutrol TE and water (q.s.). […] Biomarkers of scalp health, including biomarkers of inflammation, itch, oxidative stress and barrier integrity are assessed by non-invasive tape strip sampling of the scalp surface to determine therapeutic resolution. All biomarkers are analyzed from D-Squame® scalp tape samples that are collected from the scalp of subjects before and after scalp treatment with either azoxystrobin or vehicle (Baseline, and Week 3 respectively). These are extracted and analyzed according to published methods (International Journal of Dermatology 2011, 50, 102-113, incorporated by reference herein). […] Human inflammatory cytokines are analyzed to evaluate skin irritation and inflammatory processes. […]

The subject of another assay is Histamine. The experiment in a line: Scalp tape strip histamine (HPLC/MS/MS). The format is in vivo, human. As to the method:
Subjects are enrolled in a double-blind, randomized study for all test groups and have Baseline and Week 3 measurements of scalp health taken for flaking, itch and scalp health endpoints. Subjects take home a test product(s) and are instructed on use of test products throughout the study. Test products are solubilized in a hydroalcoholic leave-on formulation. Azoxystrobin raw material is sourced from AK Scientific Inc. (Union City, Calif.) as >97% pure. Azoxystrobin scalp treatment is prepared from a slurry of azoxystrobin in ethanol that is formulated to 0.1% (w/v) in a base chassis of 50% ethanol, 0.35% Ultrez 21 (rheology modifier), 0.05% neutrol TE and water (q.s.). […]
Biomarkers of scalp health, including biomarkers of inflammation, itch, oxidative stress and barrier integrity are assessed by non-invasive tape strip sampling of the scalp surface to determine therapeutic resolution. All biomarkers are analyzed from D-Squame® scalp tape samples that are collected from the scalp of subjects before and after scalp treatment with either azoxystrobin or vehicle (Baseline, and Week 3 respectively). These are extracted and analyzed according to published methods (International Journal of Dermatology 2011, 50, 102-113, incorporated by reference herein). […]
Histamine is analyzed by gradient reversed-phase HPLC/MS/MS to evaluate scalp itch. […]

The mark [1] stands for this setting: 0.1% leave-on daily, Week 3, scalp tape strips.

Marks after values point to notes of the source that are not given here.

As to `CO/C=C(/C(=O)OC)c1ccccc1Oc1cc(Oc2ccccc2C#N)ncn1` [Azoxystrobin], the “IL-1RA: IL-1α ratio, % Change from Baseline” value in the assay on IL-1RA: IL-1α (setting [1]) is −58.3* %. For the same compound, in the assay with IL-1RA: IL-1α (compared to a placebo control), the “reduction of Interleukin-1 (IL-1RA: IL-1α)” value is 58%. The “Histamine Results % Change from Baseline” value with Histamine (setting [1]) is 23.8%. In the assay on Histamine (3 weeks of treatment), the “histamine reduction compared to placebo control or baseline values (in words)” value is reported as “does not significantly reduce histamine”.
